Several values for one entry are separate records, joined by “and”; a condition that tells them apart may be missing. Equal entries are not always repeated.
Experiments:
Jurkat (T-cells) = experiment: Survival of Jurkat cells at variable concentration of Hcy; assay type: cell-based; conditions: NACCbl 30 μM, NAC 75 μM, CNCbl 15 μM, folate 30 μM
Protocol: (§1) Additional cell studies were conducted using Jurkat (T-cells) and U937 (monocyte) cell lines. These experiments confirmed that other cell types are killed by homocysteine, although these cell lines are not as sensitive as the SK-HEP-1 cell line discussed in the experiments above and are thus more resistant to homocysteine. Cells were exposed to NACCbl 30 μM, NAC 75 μM, CNCbl 15 μM, and folate 30 μM. […] In these Figures, the monocytes are N=6 and concentrations are as follows: NACCbl 30 μM, NAC 75 μM, CNCbl 15 μM, Folate 30 μM

U937 (monocytes) = experiment: Survival of U937 cells at variable concentration of Hcy; assay type: cell-based; conditions: NACCbl 30 μM, NAC 75 μM, CNCbl 15 μM, folate 30 μM
Protocol: as §1

SK-HEP-1 cells [1] = experiment: Protection from homocysteine-induced apoptosis, Caspase-3 activity (apoptosis assay); assay type: cell-based, human; conditions: 30 μM two hours, then 30 μM homocysteine two hours
Protocol: Caspase 3 is activated when cells undergo apoptosis. Caspase-3 assay is a standard for apoptosis assay. Homocysteine is a known inducer of apoptosis. Cells were cultured in 96-well plates for 24 hours and then treated with reagents under test conditions. Cytotoxic agents, H2O2 and etoposide were added to negative control wells. The assay was performed according to the manufacturer's protocol, as follows: Cells were re-suspended in 100 μl of clear media and 50 μl of Caspase-3 substrate solution was immediately added to each test well. […] Cell viability was determined by MTS® assay. […] Cell viability was determined by MTS® assay.

SK-HEP-1 cells [2] = experiment: Protection of endothelial cells from homocysteine-induced cell death (MTS assay); assay type: cell-based, human; conditions: for Absorbance at 490 nm: single replicates Y1-Y6
[3] = Conc. Hcy 0.000, NACCbl 30 μM, NAC 75 μM, n = 6
[4] = Conc. Hcy 1.780, NACCbl 30 μM, NAC 75 μM, n = 6
[5] = Conc. Hcy 3.125, NACCbl 30 μM, NAC 75 μM, n = 6
[6] = Conc. Hcy 6.250, NACCbl 30 μM, NAC 75 μM, n = 6
[7] = Conc. Hcy 12.500, NACCbl 30 μM, NAC 75 μM, n = 6
[8] = Conc. Hcy 25.000, NACCbl 30 μM, NAC 75 μM, n = 6
[9] = Conc. Hcy 50.000, NACCbl 30 μM, NAC 75 μM, n = 6
[10] = Conc. Hcy 100.000, NACCbl 30 μM, NAC 75 μM, n = 6
[11] = Conc. Hcy 200.000, NACCbl 30 μM, NAC 75 μM, n = 6

In the case of CC(=O)NC(C[S-])C(=O)O.CC1=C2N=C(C=C3N=C(C(C)=C4[N-]C(C(CC(N)=O)C4(C)CCC(=O)NCC(C)OP(=O)([O-])OC4C(CO)OC(n5cnc6cc(C)c(C)cc65)C4O)C4(C)N=C1C(CCC(N)=O)C4(C)CC(N)=O)C(CCC(N)=O)C3(C)C)C(CCC(N)=O)C2(C)CC(N)=O.[Co+3] [NACCbl, N-acetyl-L-cysteinylcobalamin], the “Protection of Jurkat cells from death” value (Jurkat (T-cells)) is reported as “more effective at protecting these cells from death than NAC, CN Cbl or folate”, the “Protection of U937 cells from death” value (U937 (monocytes)) is reported as “more effective at protecting these cells from death than NAC, CN Cbl or folate” and the “Protection against apoptosis induced by homocysteine” value (SK-HEP-1 cells [1]) is reported as “total protection”. The “Pre-incubation concentration that protected cells from homocysteine-induced cell death” value (SK-HEP-1 cells [2]; 2 hours, then 30 μM homocysteine 24 hours) was at least 2.0 µM, the “Normalized Data Log 2, Mean” value (SK-HEP-1 cells [2]; [3]) was 94.824 and the “Normalized Data Log 10, Mean” value (SK-HEP-1 cells [2]; [3]) was 100.000. The “Normalized Data Log 2, Mean” value (SK-HEP-1 cells [2]; [4]) was 91.341, the “Normalized Data Log 10, Mean” value (SK-HEP-1 cells [2]; [4]) was 96.489 and the “Normalized Data Log 2, Mean” value (SK-HEP-1 cells [2]; [5]) was 80.699. For the same compound, the “Normalized Data Log 10, Mean” value (SK-HEP-1 cells [2]; [5]) was 85.763, the “Normalized Data Log 2, Mean” value (SK-HEP-1 cells [2]; [6]) was 75.524 and the “Normalized Data Log 10, Mean” value (SK-HEP-1 cells [2]; [6]) was 80.546. For the same compound, the “Normalized Data Log 2, Mean” value (SK-HEP-1 cells [2]; [7]) was 70.387, the “Normalized Data Log 10, Mean” value (SK-HEP-1 cells [2]; [7]) was 75.368 and the “Normalized Data Log 2, Mean” value (SK-HEP-1 cells [2]; [8]) was 62.926. For the same compound, the “Normalized Data Log 10, Mean” value (SK-HEP-1 cells [2]; [8]) was 67.848, the “Normalized Data Log 2, Mean” value (SK-HEP-1 cells [2]; [9]) was 56.302 and the “Normalized Data Log 10, Mean” value (SK-HEP-1 cells [2]; [9]) was 61.171. The “Normalized Data Log 2, Mean” value (SK-HEP-1 cells [2]; [10]) was 52.298, the “Normalized Data Log 10, Mean” value (SK-HEP-1 cells [2]; [10]) was 57.135 and the “Normalized Data Log 2, Mean” value (SK-HEP-1 cells [2]; [11]) was 40.781. For the same compound, the “Normalized Data Log 10, Mean” value (SK-HEP-1 cells [2]; [11]) was 45.526, the “Absorbance at 490 nm” value (SK-HEP-1 cells [2]; Conc. of Hcy 0.000, NACCbl 30 μM, NAC 75 μM) was 2.885 and 2.698 and 2.821 and 2.771 and 2.691 and 2.700 and the “Absorbance at 490 nm” value (SK-HEP-1 cells [2]; Conc. of Hcy 1.780, NACCbl 30 μM, NAC 75 μM) was 2.647 and 2.551 and 2.789 and 2.890 and 2.549 and 2.611. For the same compound, the “Absorbance at 490 nm” value (SK-HEP-1 cells [2]; Conc. of Hcy 3.125, NACCbl 30 μM) was 2.453 and 2.338 and 2.360 and 2.317 and 2.418 and 2.535, the “Absorbance at 490 nm” value (SK-HEP-1 cells [2]; Conc. of Hcy 6.250, NACCbl 30 μM, NAC 75 μM) was 2.410 and 2.400 and 2.322 and 2.201 and 2.115 and 2.187 and the “Absorbance at 490 nm” value (SK-HEP-1 cells [2]; Conc. of Hcy 12.500, NACCbl 30 μM, NAC 75 μM) was 2.210 and 2.110 and 2.045 and 2.065 and 2.101 and 2.324. The “Absorbance at 490 nm” value (SK-HEP-1 cells [2]; Conc. of Hcy 25.000, NACCbl 30 μM, NAC 75 μM) was 2.100 and 2.190 and 1.879 and 1.937 and 1.779 and 1.837, the “Absorbance at 490 nm” value (SK-HEP-1 cells [2]; Conc. of Hcy 50.000, NACCbl 30 μM, NAC 75 μM) was 1.678 and 1.832 and 1.881 and 1.730 and 1.740 and 1.855 and the “Absorbance at 490 nm” value (SK-HEP-1 cells [2]; Conc. of Hcy 100.000, NACCbl 30 μM, NAC 75 μM) was 1.678 and 1.592 and 1.694 and 1.773 and 1.732 and 1.639. The “Absorbance at 490 nm” value (SK-HEP-1 cells [2]; Conc. of Hcy 200.000, NACCbl 30 μM, NAC 75 μM) was 1.378 and 1.167 and 1.330 and 1.456 and 1.491 and 1.537, the “Protection against homocysteine-induced damage compared with free thiols” value (SK-HEP-1 cells [2]; Hcy 30 μM, NAC 45 μM, GSH 100 μM, NACCbl 12.5 μM, GSCbl 15 μM) was “superior to the free thiols” and the “Prevention of cell death compared with NAC and cyanocobalamin + NAC” value (SK-HEP-1 cells [2]; NACCbl 30 μM, variable Hcy) was “superior to either NAC (75 μM) alone or in combination with CNCbl”. For the same compound, the “Absorbance at 490 nm, Mean” value (SK-HEP-1 cells [2]; SK-HEP-1, NACCbl 30 μM, NAC 75 μM, Hcy conc. 200.000, n = 6, label Hcy = Hcy alone) was 1.393, the “Mean (FIG. 14, protection of SK-HEP-1 cells from Hcy)” value (SK-HEP-1 cells [2]; [Hcy] 30 μM, [NAC] = 45 μM, [NACCbl] = 12.5 μM, [Folate] = 25 μM where named in the label, label Hcy/HCy = Hcy alone) was 1.696 and the “Mean (FIG. 14a, protection of SK-HEP-1 cells from Hcy in the presence of folate)” value (SK-HEP-1 cells [2]; [Hcy] 30 μM, folate 25 μM present, [GSCbl] = 15 μM, [NACCbl] = 12.5 μM, [CNCbl] = 15 μM, [MeCbl] = 12.5 μM, [HOCbl] = 17.5 μM, [NAC] = 45 μM, [GSH] = 100 μM) was 2.661. The “Absorbance at 490 nm, Mean” value (SK-HEP-1 cells [2]; as E80, Hcy conc. 0.000) was 2.761, the “Absorbance at 490 nm, Mean” value (SK-HEP-1 cells [2]; as E80, Hcy conc. 1.780) was 2.673 and the “Absorbance at 490 nm, Mean” value (SK-HEP-1 cells [2]; as E80, Hcy conc. 3.125) was 2.404. The “Absorbance at 490 nm, Mean” value (SK-HEP-1 cells [2]; as E80, Hcy conc. 6.250) was 2.273, the “Absorbance at 490 nm, Mean” value (SK-HEP-1 cells [2]; as E80, Hcy conc. 12.500) was 2.142 and the “Absorbance at 490 nm, Mean” value (SK-HEP-1 cells [2]; as E80, Hcy conc. 25.000) was 1.954. The “Absorbance at 490 nm, Mean” value (SK-HEP-1 cells [2]; as E80, Hcy conc. 50.000) was 1.786, the “Absorbance at 490 nm, Mean” value (SK-HEP-1 cells [2]; as E80, Hcy conc. 100.000) was 1.685 and the Survival (SK-HEP-1 cells [2]; compound 30 μM, 50 μM homocysteine) was about 60%.

From US20080113900A1, “Pharmaceutical compositions and therapeutic applications for the use of a synthetic vitamin B12 derivative, glutathionylcobalamin” (priority 2006, published 2008)
